Measured values taken from ChEMBL document CHEMBL3734705, “Synthesis and in vitro cytotoxicity of novel C-12 substituted-14-deoxy-andrographolide derivatives as potent anti-cancer agents” (2015).

Key:
Format in all cases: functional
[1] = Cytotoxicity against human HL-60(TB) cells after 48 hrs by SRB assay; details: HL-60, 48 h
[2] = Cytotoxicity against human RPMI8226 cells after 48 hrs by SRB assay; details: RPMI-8226, 48 h
[3] = test system: SR; test: Cytotoxicity against human SR cells after 48 hrs by SRB assay
[4] = test system: EKVX; test: Cytotoxicity against human EKVX cells after 48 hrs by SRB assay
[5] = Cytotoxicity against human HOP92 cells after 48 hrs by SRB assay; details: HOP-92, 48 h
[6] = test system: NCI-H226; test: Cytotoxicity against human NCI-H226 cells after 48 hrs by SRB assay; details: NCI-H226, 48 h
[7] = test system: NCI-H23; test: Cytotoxicity against human NCI-H23 cells after 48 hrs by SRB assay; details: NCI-H23, 48 h
[8] = test system: NCI-H460; test: Cytotoxicity against human NCI-H460 cells after 48 hrs by SRB assay; details: NCI-H460, 48 h
[9] = test system: NCI-H522; test: Cytotoxicity against human NCI-H522 cells after 48 hrs by SRB assay; details: NCI-H522, 48 h
[10] = Cytotoxicity against human COLO205 cells after 48 hrs by SRB assay; details: COLO 205, 48 h
[11] = Cytotoxicity against human HCT116 cells after 48 hrs by SRB assay; details: HCT-116, 48 h
[12] = Cytotoxicity against human HCT15 cells after 48 hrs by SRB assay; details: HCT-15, 48 h
[13] = test system: HT-29; test: Cytotoxicity against human HT-29 cells after 48 hrs by SRB assay; details: HT-29, 48 h
[14] = test system: KM12; test: Cytotoxicity against human KM12 cells after 48 hrs by SRB assay; details: KM12, 48 h
[15] = Cytotoxicity against human SW620 cells after 48 hrs by SRB assay; details: SW-620, 48 h
[16] = Cytotoxicity against human SF268 cells after 48 hrs by SRB assay; details: SF-268, 48 h
[17] = Cytotoxicity against human SNB19 cells after 48 hrs by SRB assay; details: SNB-19, 48 h
[18] = Cytotoxicity against human LOXIMVI cells after 48 hrs by SRB assay; details: LOX IMVI
[19] = test system: MDA-MB-435; test: Cytotoxicity against human MDA-MB-435 cells after 48 hrs by SRB assay; details: MDA-MB-435, 48 h
[20] = test system: SK-MEL-2; test: Cytotoxicity against human SK-MEL-2 cells after 48 hrs by SRB assay; details: SK-MEL-2, 48 h
[21] = test system: SK-MEL-28; test: Cytotoxicity against human SK-MEL-28 cells after 48 hrs by SRB assay; details: SK-MEL-28, 48 h
[22] = Cytotoxicity against human IGROV1 cells after 48 hrs by SRB assay; details: IGROV-1, 48 h
[23] = Cytotoxicity against human OVCAR8 cells after 48 hrs by SRB assay; details: OVCAR-8, 48 h
[24] = Cytotoxicity against human NCI-ADR-RES cells after 48 hrs by SRB assay
[25] = test system: 786-0; test: Cytotoxicity against human 786-0 cells after 48 hrs by SRB assay; details: 786-0, 48 h
[26] = test system: A498; test: Cytotoxicity against human A498 cells after 48 hrs by SRB assay; details: A498, 48 h
[27] = Cytotoxicity against human Caki1 cells after 48 hrs by SRB assay; details: CAKI-1, 48 h
[28] = test system: SN12C; test: Cytotoxicity against human SN12C cells after 48 hrs by SRB assay
[29] = Cytotoxicity against human UO31 cells after 48 hrs by SRB assay; details: UO-31, 48 h
[30] = test system: MCF7; test: Cytotoxicity against human MCF7 cells after 48 hrs by SRB assay; details: MCF7, 48 h
[31] = test system: MDA-MB-231; test: Cytotoxicity against human MDA-MB-231 cells after 48 hrs by SRB assay; details: MDA-MB-231, 48 h
[32] = test system: T47D; test: Cytotoxicity against human T47D cells after 48 hrs by SRB assay
[33] = test system: MDA-MB-468; test: Cytotoxicity against human MDA-MB-468 cells after 48 hrs by SRB assay; details: MDA-MB-468, 48 h
[34] = read-out: LC50 (the source's name)

C=C1CC[C@@H]2[C@](C)(COC(C)=O)[C@H](OC(C)=O)CC[C@@]2(C)[C@@H]1C/C=C1/C(=O)OC[C@H]1OC(C)=O
GI50 [1]: 2.61 µM
TGI [1]: 6.78 µM
CC50 [1, 34]: 78.5 µM
GI50 [2]: 2.07 µM
LC50 [2]: > 100 µM
TGI [2]: 7.68 µM
GI50 [3]: 2.59 µM
TGI [3]: 10.1 µM
CC50 [3, 34]: > 100 µM
GI50 [4]: 12.9 µM
LC50 [4]: 50.9 µM
TGI [4]: 25.6 µM
GI50 [5]: 13.2 µM
LC50 [5]: 52.7 µM
TGI [5]: 26.4 µM
GI50 [6]: 2.14 µM
LC50 [6]: 19.9 µM
TGI [6]: 5.42 µM
GI50 [7]: 6.22 µM
LC50 [7]: 66.9 µM
TGI [7]: 23 µM
GI50 [8]: 18.6 µM
TGI [8]: 37.7 µM
CC50 [8, 34]: 76.2 µM
GI50 [9]: 1.52 µM
LC50 [9]: 8.67 µM
TGI [9]: 3.63 µM
GI50 [10]: 3.37 µM
LC50 [10]: > 100 µM
TGI [10]: 11.4 µM
GI50 [11]: 1.45 µM
LC50 (concentration killing 50% of cells) [11]: 6.15 µM
TGI [11]: 2.98 µM
GI50 [12]: 1.58 µM
LC50 [12]: 65.5 µM
TGI [12]: 4.33 µM
GI50 [13]: 2.58 µM
LC50 [13]: > 100 µM
GI50 [14]: 10.5 µM
LC50 [14]: 73.4 µM
TGI [14]: 27.7 µM
GI50 [15]: 2.29 µM
LC50 [15]: 41.1 µM
TGI [15]: 5.85 µM
GI50 [16]: 8.56 µM
LC50 [16]: 55.5 µM
TGI [16]: 22.7 µM
GI50 [17]: 10.8 µM
LC50 (concentration killing 50% of cells) [17]: 55.6 µM
TGI [17]: 24.5 µM
GI50 [18]: 1.42 µM
LC50 [18]: 5.73 µM
TGI [18]: 2.85 µM
GI50 [19]: 2.63 µM
LC50 (50% lethal concentration) [19]: 32.2 µM
TGI [19]: 10.1 µM
GI50 [20]: 10.7 µM
LC50 (concentration causing 50% net cell kill) [20]: 64.3 µM
TGI [20]: 26.3 µM
GI50 [21]: 1.75 µM
LC50 (lethal concentration 50%) [21]: 6.51 µM
TGI [21]: 3.38 µM
GI50 [22]: 2.41 µM
TGI [22]: 6.23 µM
CC50 [22, 34]: 32 µM
GI50 [23]: 3.38 µM
LC50 [23]: > 100 µM
TGI [23]: 22 µM
GI50 [24]: 4.22 µM
LC50 [24]: > 100 µM
TGI [24]: 19.8 µM
GI50 [25]: 2.02 µM
LC50 [25]: 9.29 µM
TGI [25]: 4.34 µM
GI50 [26]: 14.4 µM
TGI [26]: 27.5 µM
CC50 [26, 34]: 52.6 µM
GI50 [27]: 6.67 µM
LC50 [27]: 44.3 µM
TGI [27]: 19.6 µM
GI50 [28]: 3.07 µM
LC50 (concentration killing 50% of cells) [28]: 72 µM
TGI [28]: 13.3 µM
GI50 [29]: 1.91 µM
LC50 (concentration killing 50% of cells) [29]: 7.92 µM
TGI [29]: 3.89 µM
GI50 [30]: 1.83 µM
LC50 (50% lethal concentration) [30]: > 100 µM
TGI [30]: 6.79 µM
GI50 [31]: 12.5 µM
LC50 [31]: 58.7 µM
TGI [31]: 27.1 µM
GI50 [32]: 2.86 µM
LC50 (concentration killing 50% of cells) [32]: > 100 µM
TGI [32]: 13.8 µM
GI50 [33]: 2.04 µM
LC50 [33]: 74.4 µM
TGI [33]: 5.69 µM
